Source: ChEMBL document CHEMBL1201862, “PubChem BioAssay data set” (2004)
Active and inactive are the calls of the source.

What was measured:
[1] = molecular target: T1, Corticotropin-releasing factor receptor 2/Corticotropin-releasing factor-binding protein (Homo sapiens, UniProt P24387+Q13324); test: Dose Response confirmation of uHTS hits for small molecule antagonists of the CRF-binding protein and CRF-R2 receptor complex.; type: functional; settings: read-out: IC50_Mean
T1 sequence (Q13324 whole entry): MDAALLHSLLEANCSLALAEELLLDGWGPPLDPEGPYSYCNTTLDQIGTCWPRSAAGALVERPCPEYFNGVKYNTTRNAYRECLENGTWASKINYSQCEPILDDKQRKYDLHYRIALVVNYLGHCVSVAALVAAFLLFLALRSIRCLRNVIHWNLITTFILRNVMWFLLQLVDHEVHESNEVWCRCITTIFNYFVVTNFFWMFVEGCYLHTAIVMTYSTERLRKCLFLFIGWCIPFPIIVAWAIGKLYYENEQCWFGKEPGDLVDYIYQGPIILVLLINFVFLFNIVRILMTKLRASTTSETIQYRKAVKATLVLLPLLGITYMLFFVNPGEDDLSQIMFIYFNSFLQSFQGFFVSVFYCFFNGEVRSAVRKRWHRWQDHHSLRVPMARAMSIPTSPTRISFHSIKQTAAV
T1 sequence (P24387 whole entry): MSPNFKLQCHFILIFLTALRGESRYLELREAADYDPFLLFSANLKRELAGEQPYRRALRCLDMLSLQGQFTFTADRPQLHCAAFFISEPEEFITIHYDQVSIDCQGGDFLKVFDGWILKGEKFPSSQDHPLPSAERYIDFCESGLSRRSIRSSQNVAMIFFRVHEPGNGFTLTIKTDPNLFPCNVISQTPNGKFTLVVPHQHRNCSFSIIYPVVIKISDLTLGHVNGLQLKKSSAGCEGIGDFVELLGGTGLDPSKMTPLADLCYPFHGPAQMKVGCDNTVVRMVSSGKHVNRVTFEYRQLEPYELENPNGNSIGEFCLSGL

[2] = molecular target: T1, Corticotropin-releasing factor receptor 2/Corticotropin-releasing factor-binding protein; test: activators of CRF receptor 2 with binding protein – uHTS hits, confirmation (AID 602473); type: functional; settings: read-out: EC50_Mean
Fatty acid synthase [3] = molecular target: T2, Fatty acid synthase (Homo sapiens, UniProt P49327); test: inhibition of human FAS-TE enzyme activity – biochemical, endpoint fluorescence intensity, uHTS hits, dose response (AID 624327); type: functional;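 further: fluorescence from hydrolysis of an O-methyl fluorescein acyl ester substrate by the enzyme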
Fatty acid synthase [4] = molecular target: T2, Fatty acid synthase; test: inhibition of human FAS-TE enzyme activity – biochemical, kinetic fluorescence intensity, dose response (AID 624326); type: functional;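 further: rate of fluorescence rise from hydrolysis of a fluorogenic O-methyl fluorescein ester substrate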
[5] = NIH-3T3 fibroblast cytotoxicity, dose response, cytotoxicity control, cell-based, fluorescence, Alamar Blue, secondary assay (AID 2327); type: functional;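 further: NIH-3T3 mouse fibroblasts cultured with fluconazole at 8 µg/mL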
[6] = fluconazole-exposed Candida albicans growth modulators – fluorescence, retest, confirmation (AID 2467); type: functional, cell-based
[7] = molecular target: T3, Rac GTPase-activating protein 1 (Homo sapiens, UniProt Q9H0H5); test: blockers of MgcRacGAP-driven Rac1 GTP hydrolysis – biochemical, ADP Hunter fluorescence, primary and confirmatory, confirmation (AID 624330); type: functional
T3 sequence (Q9H0H5 whole entry): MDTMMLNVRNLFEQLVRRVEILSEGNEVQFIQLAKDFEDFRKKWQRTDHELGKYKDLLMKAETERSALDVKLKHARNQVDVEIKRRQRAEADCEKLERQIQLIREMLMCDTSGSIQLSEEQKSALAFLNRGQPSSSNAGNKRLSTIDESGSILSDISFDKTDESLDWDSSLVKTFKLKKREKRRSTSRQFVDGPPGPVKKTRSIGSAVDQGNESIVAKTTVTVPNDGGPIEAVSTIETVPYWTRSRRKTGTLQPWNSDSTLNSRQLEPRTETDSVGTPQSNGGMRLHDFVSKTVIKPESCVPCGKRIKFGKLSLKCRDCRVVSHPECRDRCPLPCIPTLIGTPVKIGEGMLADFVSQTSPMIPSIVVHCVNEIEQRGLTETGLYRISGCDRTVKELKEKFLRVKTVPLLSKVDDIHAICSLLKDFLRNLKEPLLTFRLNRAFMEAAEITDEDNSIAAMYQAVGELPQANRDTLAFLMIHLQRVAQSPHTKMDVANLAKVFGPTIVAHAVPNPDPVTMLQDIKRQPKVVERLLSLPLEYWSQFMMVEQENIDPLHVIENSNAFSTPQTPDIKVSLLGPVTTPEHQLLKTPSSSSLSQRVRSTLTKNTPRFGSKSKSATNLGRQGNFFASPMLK

[8] = molecular target: T4, Endoribonuclease toxin MazF (Escherichia coli K-12, UniProt P0AE70); test: activation of MazEF endoribonuclease cleavage – biochemical, fluorescence, single-stranded RNA substrate, uHTS hits, dose response (AID 588481); type: functional
T4 sequence (P0AE70 whole entry): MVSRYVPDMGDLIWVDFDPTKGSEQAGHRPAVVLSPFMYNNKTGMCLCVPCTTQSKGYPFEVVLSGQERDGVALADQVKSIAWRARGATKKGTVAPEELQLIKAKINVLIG

[9] = molecular target: T4, Endoribonuclease toxin MazF; test: substrate-only fluorescence increase artefacts – biochemical, single-stranded RNase substrate, counter-screen for MazEF activator project, dose response (AID 588502); type: functional
Large T antigen = Large T antigen (Simian virus 40, UniProt P03070); type: functional, Betapolyomavirus macacae;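 further: Confirmatory-stage PubChem screen for compounds that inhibit SV40 T antigen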
H9c2 = test: cells; type: functional, cell-based; settings: Rattus norvegicus, H9c2, Myocardium;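 further: confirmatory concentration-response retest of ultra-high-throughput screening hits for modulation of myocardial damage; cell death induced by hydrogen peroxide oxidative stress; compound pretreatment for 60 min then peroxide exposure for 2 h; potency is for protecting the cells against peroxide damage rather than for killing them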
Cytochrome P450 3A4 = Cytochrome P450 3A4 (Homo sapiens, UniProt P08684); settings: Potency;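 further: confirmatory qHTS run detecting inhibitors and substrates of CYP3A4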
[10] = tested on: Streptococcus sp. 'group A'; test: Streptococcus pyogenes SK(-)GAS viability under kanamycin – luminescence, BacTiterGlo, confirmation, counter-screen for streptokinase expression inhibitor project, dose response (AID 1900); type: functional, organism-based
Streptokinase A = molecular target: T5, Streptokinase A (Streptococcus pyogenes serotype M1, UniProt P10520); test: viability-normalized secreted streptokinase activity reduction – plasminogen activation absorbance, OD405, dose response (AID 1914); type: functional, Streptococcus pyogenes M1 GAS;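 further: secreted streptokinase activity via plasminogen activation per viability signal from cell pellet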
T5 sequence (P10520 whole entry): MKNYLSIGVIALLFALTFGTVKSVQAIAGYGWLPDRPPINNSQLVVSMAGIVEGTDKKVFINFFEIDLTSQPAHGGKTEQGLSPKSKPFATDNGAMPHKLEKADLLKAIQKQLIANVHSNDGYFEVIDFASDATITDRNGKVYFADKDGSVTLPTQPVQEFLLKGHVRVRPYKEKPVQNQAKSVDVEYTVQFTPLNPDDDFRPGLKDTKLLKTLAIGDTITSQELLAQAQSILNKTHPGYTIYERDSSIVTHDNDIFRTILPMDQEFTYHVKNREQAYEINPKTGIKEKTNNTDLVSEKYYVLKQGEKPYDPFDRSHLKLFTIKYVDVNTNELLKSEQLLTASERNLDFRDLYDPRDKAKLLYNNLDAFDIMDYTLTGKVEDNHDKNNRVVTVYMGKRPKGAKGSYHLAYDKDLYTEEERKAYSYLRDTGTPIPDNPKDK

Streptococcus = test: GAS UMAA2166 growth inhibition – luminescence, BacTiterGlo, counter-screen for streptokinase expression inhibitor project, dose response (AID 1915); type: functional, organism-based;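 further: potency for reduction of bacterial viability or growth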
[11] = luciferase reporter signal suppression in cells – H4 neuroglioma cells, luminescence, dose response (AID 1990); type: functional, cell-based
[12] = Luminescence Cell-Based Dose Response HTS to Identify Inhibitors of 5'UTR Stem-Loop Driven Prion Protein mRNA Translation in H4 Neuroglioblastoma Cells. [Related pubchem assays: 1827 (Project Summary), 1813 (Primary HTS)]; type: functional
[13] = alpha-synuclein stem-loop luciferase translation blockers – H4 neuroglioma cells, luminescence, confirmation (AID 1988); type: functional, cell-based

Cytochrome P450 3A4, sequence (P08684 whole entry): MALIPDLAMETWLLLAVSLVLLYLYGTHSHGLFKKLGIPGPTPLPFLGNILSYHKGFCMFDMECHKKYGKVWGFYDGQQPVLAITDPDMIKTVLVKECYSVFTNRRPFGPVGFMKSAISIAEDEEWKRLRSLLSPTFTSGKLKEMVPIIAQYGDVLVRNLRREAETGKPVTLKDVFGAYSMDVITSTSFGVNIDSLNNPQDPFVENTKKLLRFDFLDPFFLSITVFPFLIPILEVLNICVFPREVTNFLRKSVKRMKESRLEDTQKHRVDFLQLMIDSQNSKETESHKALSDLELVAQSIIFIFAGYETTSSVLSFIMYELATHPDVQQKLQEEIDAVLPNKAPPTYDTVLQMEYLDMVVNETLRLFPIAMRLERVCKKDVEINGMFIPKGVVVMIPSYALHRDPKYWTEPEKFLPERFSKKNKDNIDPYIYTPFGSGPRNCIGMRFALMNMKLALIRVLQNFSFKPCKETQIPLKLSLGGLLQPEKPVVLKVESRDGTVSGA
Large T antigen, sequence (P03070 whole entry): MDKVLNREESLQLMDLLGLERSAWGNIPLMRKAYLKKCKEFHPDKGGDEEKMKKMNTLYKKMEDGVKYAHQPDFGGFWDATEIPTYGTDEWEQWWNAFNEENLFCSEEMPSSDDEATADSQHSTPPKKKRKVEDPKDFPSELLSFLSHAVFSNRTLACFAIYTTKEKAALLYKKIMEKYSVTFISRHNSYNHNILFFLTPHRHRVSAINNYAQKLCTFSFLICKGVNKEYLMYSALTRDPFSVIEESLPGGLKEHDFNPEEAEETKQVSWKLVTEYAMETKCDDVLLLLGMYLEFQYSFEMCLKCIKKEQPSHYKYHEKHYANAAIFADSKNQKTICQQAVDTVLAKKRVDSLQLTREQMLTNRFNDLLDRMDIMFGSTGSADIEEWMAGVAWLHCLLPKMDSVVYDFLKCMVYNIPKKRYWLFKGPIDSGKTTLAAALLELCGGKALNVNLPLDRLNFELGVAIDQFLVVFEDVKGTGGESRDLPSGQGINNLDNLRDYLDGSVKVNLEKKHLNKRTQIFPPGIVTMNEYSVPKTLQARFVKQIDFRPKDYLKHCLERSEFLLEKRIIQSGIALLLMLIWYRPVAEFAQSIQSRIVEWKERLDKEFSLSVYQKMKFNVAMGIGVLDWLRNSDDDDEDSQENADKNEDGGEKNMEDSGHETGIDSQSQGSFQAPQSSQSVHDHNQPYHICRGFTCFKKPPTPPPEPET
T2 sequence (P49327 whole entry): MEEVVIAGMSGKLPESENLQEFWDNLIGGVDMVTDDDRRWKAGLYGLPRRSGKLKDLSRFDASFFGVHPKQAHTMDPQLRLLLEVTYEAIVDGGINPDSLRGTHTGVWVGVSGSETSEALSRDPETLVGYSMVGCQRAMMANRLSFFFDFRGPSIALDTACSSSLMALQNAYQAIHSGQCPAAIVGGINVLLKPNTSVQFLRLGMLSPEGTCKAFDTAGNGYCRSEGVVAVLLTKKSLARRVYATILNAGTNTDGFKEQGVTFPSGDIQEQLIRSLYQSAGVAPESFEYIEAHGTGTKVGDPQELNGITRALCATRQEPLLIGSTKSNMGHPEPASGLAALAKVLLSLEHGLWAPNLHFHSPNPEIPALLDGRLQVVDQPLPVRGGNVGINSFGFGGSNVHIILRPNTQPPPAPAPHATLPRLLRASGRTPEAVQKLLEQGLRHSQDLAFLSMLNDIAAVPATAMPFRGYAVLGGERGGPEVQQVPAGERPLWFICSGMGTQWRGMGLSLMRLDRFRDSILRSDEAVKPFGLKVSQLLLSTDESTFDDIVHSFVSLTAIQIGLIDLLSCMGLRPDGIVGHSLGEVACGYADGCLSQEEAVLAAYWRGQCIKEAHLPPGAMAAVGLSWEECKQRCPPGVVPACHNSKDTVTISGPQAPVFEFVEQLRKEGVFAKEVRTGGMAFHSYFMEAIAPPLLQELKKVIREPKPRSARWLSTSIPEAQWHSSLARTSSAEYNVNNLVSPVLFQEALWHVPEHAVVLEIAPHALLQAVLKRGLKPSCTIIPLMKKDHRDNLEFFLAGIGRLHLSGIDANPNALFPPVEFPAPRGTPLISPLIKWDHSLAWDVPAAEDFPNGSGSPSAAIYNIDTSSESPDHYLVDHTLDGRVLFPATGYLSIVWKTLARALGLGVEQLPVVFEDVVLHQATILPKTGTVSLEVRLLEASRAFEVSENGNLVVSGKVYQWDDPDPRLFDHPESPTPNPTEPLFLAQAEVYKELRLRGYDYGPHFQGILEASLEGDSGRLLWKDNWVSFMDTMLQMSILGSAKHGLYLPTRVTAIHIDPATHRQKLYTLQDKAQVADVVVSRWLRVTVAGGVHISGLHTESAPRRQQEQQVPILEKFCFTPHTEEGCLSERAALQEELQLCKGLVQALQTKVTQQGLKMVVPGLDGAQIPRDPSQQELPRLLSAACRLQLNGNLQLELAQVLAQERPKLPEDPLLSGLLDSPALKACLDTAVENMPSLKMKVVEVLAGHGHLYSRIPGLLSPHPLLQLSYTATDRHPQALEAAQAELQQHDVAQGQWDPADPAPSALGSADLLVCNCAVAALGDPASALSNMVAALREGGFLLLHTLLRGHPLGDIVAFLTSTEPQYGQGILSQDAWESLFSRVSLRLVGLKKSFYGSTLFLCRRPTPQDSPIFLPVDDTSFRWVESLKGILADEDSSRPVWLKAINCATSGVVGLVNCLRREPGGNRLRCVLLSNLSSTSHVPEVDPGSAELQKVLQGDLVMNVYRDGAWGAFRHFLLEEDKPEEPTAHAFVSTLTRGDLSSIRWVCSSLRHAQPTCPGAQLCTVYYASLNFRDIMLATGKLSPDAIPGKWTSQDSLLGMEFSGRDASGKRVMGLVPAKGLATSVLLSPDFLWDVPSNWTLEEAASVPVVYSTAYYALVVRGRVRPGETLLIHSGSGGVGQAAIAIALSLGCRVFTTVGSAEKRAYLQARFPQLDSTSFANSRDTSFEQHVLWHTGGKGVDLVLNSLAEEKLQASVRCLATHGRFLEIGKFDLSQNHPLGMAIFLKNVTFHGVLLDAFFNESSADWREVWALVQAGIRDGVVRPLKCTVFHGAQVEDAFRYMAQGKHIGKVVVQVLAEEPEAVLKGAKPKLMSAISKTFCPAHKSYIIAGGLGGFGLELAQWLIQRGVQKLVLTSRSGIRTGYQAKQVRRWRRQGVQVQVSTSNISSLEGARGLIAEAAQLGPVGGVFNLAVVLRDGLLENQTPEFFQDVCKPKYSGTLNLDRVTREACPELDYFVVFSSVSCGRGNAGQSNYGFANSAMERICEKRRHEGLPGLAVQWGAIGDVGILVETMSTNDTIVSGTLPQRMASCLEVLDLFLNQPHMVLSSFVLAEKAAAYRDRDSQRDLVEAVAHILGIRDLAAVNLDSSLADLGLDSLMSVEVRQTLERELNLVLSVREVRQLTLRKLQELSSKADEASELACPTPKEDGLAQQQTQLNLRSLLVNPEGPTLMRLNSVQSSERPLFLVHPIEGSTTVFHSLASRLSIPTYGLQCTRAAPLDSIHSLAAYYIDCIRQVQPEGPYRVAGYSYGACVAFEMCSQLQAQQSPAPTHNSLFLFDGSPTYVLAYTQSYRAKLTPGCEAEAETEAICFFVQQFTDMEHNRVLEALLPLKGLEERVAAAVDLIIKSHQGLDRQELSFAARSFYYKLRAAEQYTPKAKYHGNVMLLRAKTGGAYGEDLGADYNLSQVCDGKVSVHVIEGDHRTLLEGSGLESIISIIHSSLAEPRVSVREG

With `O=C(NCCCc1ccccc1)c1cccc([N+](=O)[O-])c1` the IC50 [1] was > 47.1 µM (inactive), the EC50 [2] was > 53 µM (inactive) and the IC50 (Fatty acid synthase [3]) was 5.56 µM (active). For the same compound, the IC50 (Fatty acid synthase [4]) was 4.33 µM (active).

For `CCOC(=O)c1[nH]c2ccc(C)cc2c1N`, the EC50 [5] was > 160 µM (inconclusive), the EC50 [6] was > 38 µM (not active) and the IC50 [7] was 24.1 µM (active).

In the case of `COc1cc(NC(=O)c2ccccc2)c(OC)cc1NC(=O)Cc1ccc(Br)cc1`, the EC50 [8] is reported as 29.6 µM (inactive) and the EC50 [9] is reported as > 99 µM (inactive).

In the case of `O=C(C1CC1)N1CCN(c2ccc(O)cc2)CC1`, the IC50 (Large T antigen) is reported as 11.5 µM (active).

With `Cc1cc(C)n(-c2nc3nonc3nc2Nc2cccc(C)c2C)n1` the EC50 [8] was > 99 µM (inactive) and the EC50 [9] was > 99 µM (inactive).

For `COc1ccc(Cl)cc1NC(=O)CN(C)C(=O)Cn1[nH]c(=O)c2ccccc2c1=O`, the IC50 (H9c2) was 20.7 µM (active).

For `COc1ccc(OC)c(C(=O)COC(=O)c2ccc([N+](=O)[O-])o2)c1`, the IC50 (H9c2) was > 79 µM (inactive).

For `CCOC(=O)c1cc2c(=O)n3ccccc3nc2n(Cc2ccco2)/c1=N/C(=O)c1cccnc1`, the IC50 (H9c2) was 24.3 µM (active).

In the case of `CCc1cc(C(=O)N/N=C/c2ccc(O)cc2)c2ccccc2n1`, the IC50 (Large T antigen) is reported as > 100 µM (active).

For `CCN1C[C@@]2(COC)C3[C@@H](OC)C4[C@@H]1[C@@]3(C1C[C@@]3(O)[C@H](OC(=O)c5ccccc5)C1[C@]4(OC(C)=O)[C@@H](O)[C@@H]3OC)[C@@H](OC)C[C@H]2O` (stereo partly specified), the AC50 (Cytochrome P450 3A4) was 31.6 µM (inconclusive).

With `CCOc1cc(/C=N/Nc2nc(C)cc(O)n2)ccc1O` the IC50 (Large T antigen) was 24.9 µM (active).

For `Cc1ccc(/C=N/NC(=O)C2=NNC(c3ccccc3)(c3ccccc3)C2)c(O)c1`, the EC50 [5] was 8.56 µM (active), the EC50 [10] was 2.9 µM (active) and the EC50 (Streptokinase A) was > 150 µM (not active). The EC50 [6] was 2.3 µM (active) and the EC50 (Streptococcus) was > 150 µM (not active).

With `COc1ccc(-c2nn(-c3ccccc3)cc2/C=N/NC(=S)NC(C)C)cc1OC` the EC50 [5] was 22.9 µM (active), the EC50 [11] was 20.2 µM (active) and the EC50 [12] was > 120 µM (not active). For the same compound, the EC50 [13] was 48.4 µM (active) and the EC50 [6] was > 38 µM (not active).

With `Oc1ccc(Nc2nc(NCC3CCCO3)c3ccccc3n2)cc1` (stereo unspecified) the IC50 (Large T antigen) was 9.48 µM (active).

With `COc1cc(O)c(C(=O)/C=C/c2ccccc2)c(OC)c1` [FLAVOKAWAIN B] the AC50 (Cytochrome P450 3A4) was 15.8 µM (inconclusive).

With `COc1cc(O)cc(/C=C/c2ccccc2)c1` [PINOSYLVIN METHYL ETHER] the AC50 (Cytochrome P450 3A4) was 31.6 µM (inconclusive).
